Results taken from ChEMBL document CHEMBL3875185, “Structure-anticonvulsant activity studies in the group of (E)-N-cinnamoyl aminoalkanols derivatives monosubstituted in phenyl ring with 4-Cl, 4-CH3 or 2-CH3” (Bioorg Med Chem, 2017).

Columns and labels:
[1] = target: T1, Adenosine receptor A1 (Homo sapiens) (UniProt P30542); test: Displacement of [3H]DPCPX from human recombinant adenosine receptor A1 expressed in CHO cells at 100 uM measured after 60 mins by scintillation counting method relative to control; type: cell-based
T1 sequence (whole entry): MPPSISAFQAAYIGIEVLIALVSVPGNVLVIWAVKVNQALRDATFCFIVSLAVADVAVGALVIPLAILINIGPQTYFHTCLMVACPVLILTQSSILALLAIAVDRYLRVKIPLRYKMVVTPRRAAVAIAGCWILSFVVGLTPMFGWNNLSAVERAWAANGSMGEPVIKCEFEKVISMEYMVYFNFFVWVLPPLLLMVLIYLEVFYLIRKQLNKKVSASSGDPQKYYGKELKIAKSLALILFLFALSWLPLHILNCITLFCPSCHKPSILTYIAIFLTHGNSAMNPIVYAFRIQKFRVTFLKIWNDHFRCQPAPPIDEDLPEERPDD

[2] = system: Mus musculus; test: Neurotoxicity in mouse assessed as induction of motor impairment at 30 mg/kg, ip measured at 4 hrs post dose by rotarod method; type: toxicity, organism-based; settings: in vivo
[3] = system: Mus musculus; test: Anticonvulsant activity in ip dosed 6-Hz induced seizure mouse model assessed as restoration of normal activity within 10 secs from stimulation by measuring time to peak effect at 32 mA; type: functional
[4] = system: Mus musculus; test: Anticonvulsant activity in ip dosed maximal electroshock induced seizure mouse model assessed as suppression in hindlimb tonic extension; type: functional
[5] = Protection index, ratio of TD50 for neurotoxicity in ip dosed mouse to ED50 for ip dosed pentylenetetrazole induced seizure mouse model; type: toxicity, organism-based; settings: in vivo, read-out: Ratio TD50/ED50
[6] = Neurotoxicity in po dosed Sprague-Dawley rat assessed as behavioral change; type: toxicity, organism-based; settings: in vivo
[7] = target: Adrenergic receptor alpha-1 (Rattus norvegicus) (UniProt P15823+P23944+P43140); test: Displacement of [3H]prazosin from rat cerebral cortex alpha-1 adrenergic receptor at 100 uM measured after 60 mins by scintillation counting method relative to control
[8] = target: Adrenergic receptor alpha-2 (Rattus norvegicus) (UniProt P22086+P19328+P22909); test: Displacement of [3H]RX 821002 from rat cerebral cortex alpha-2 adrenergic receptor at 100 uM measured after 60 mins by scintillation counting method relative to control
[9] = target: Beta-2 adrenergic receptor (Homo sapiens) (UniProt P07550); test: Displacement of [3H]CGP 12177 from human recombinant beta2 adrenergic receptor expressed in CHO cells at 100 uM measured after 120 mins by scintillation counting method relative to control; type: cell-based
[10] = target: D(1A) dopamine receptor (Homo sapiens) (UniProt P21728); test: Displacement of [3H]SCH 23390 from human recombinant dopamine D1 receptor expressed in CHO cells at 100 uM measured after 60 mins by scintillation counting method relative to control; type: cell-based
[11] = target: D(2) dopamine receptor (Homo sapiens) (UniProt P14416); test: Displacement of [3H]methyl-spiperone from human recombinant dopamine D2S receptor expressed in HEK293 cells at 100 uM measured after 60 mins by scintillation counting method relative to control; type: cell-based
[12] = target: Melanocortin receptor 4 (Homo sapiens) (UniProt P32245); test: Displacement of [125I]NDP-a-MSH from human recombinant MC4 receptor expressed in CHO cells at 100 uM measured after 120 mins by scintillation counting method relative to control; type: cell-based
[13] = target: T2, Substance-K receptor (Homo sapiens) (UniProt P21452); test: Displacement of [125I]NKA from human recombinant NK2 receptor expressed in CHO cells at 100 uM measured after 60 mins by scintillation counting method relative to control; type: cell-based
T2 sequence (whole entry): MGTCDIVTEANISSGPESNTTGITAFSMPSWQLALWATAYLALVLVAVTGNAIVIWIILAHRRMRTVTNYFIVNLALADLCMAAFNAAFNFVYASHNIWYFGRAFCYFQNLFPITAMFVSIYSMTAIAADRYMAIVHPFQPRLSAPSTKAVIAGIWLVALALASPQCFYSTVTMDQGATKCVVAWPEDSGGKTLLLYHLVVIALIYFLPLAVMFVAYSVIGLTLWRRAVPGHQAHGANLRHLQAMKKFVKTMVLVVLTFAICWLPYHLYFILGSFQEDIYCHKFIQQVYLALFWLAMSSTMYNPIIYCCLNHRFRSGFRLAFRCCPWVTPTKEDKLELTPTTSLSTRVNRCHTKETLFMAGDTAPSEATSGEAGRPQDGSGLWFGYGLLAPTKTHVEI

[14] = target: T3, Neuromedin-K receptor (Homo sapiens) (UniProt P29371); test: Displacement of [3H]SR 142801 from human recombinant NK3 receptor expressed in CHO cells at 100 uM measured after 120 mins by scintillation counting method relative to control; type: cell-based
T3 sequence (whole entry): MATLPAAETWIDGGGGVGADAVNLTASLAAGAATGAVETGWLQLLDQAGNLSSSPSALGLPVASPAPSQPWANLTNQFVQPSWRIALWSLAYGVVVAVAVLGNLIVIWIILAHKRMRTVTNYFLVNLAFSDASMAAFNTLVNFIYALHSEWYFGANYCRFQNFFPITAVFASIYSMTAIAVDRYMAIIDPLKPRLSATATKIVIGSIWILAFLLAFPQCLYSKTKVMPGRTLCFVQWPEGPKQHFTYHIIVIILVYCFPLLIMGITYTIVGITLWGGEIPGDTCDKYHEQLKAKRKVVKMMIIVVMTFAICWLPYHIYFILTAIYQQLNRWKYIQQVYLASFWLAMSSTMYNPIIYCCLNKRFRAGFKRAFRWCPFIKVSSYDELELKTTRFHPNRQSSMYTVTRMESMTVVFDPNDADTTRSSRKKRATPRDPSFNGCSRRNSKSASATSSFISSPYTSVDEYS

[15] = target: Nociceptin receptor (Homo sapiens) (UniProt P41146); test: Displacement of [3H]nociceptin from human recombinant NOP receptor expressed in HEK293 cells at 100 uM measured after 60 mins by scintillation counting method relative to control; type: cell-based
[16] = target: 5-hydroxytryptamine receptor 6 (Homo sapiens) (UniProt P50406); test: Displacement of [3H]LSD from human recombinant 5HT6 receptor expressed in CHO cells at 100 uM measured after 120 mins by scintillation counting method relative to control; type: cell-based
[17] = target: 5-hydroxytryptamine receptor 7 (Homo sapiens) (UniProt P34969); test: Displacement of [3H]LSD from human recombinant 5HT7 receptor expressed in CHO cells at 100 uM measured after 120 mins by scintillation counting method relative to control; type: cell-based
5-hydroxytryptamine receptor 7 (Homo sapiens), sequence (P34969 whole entry): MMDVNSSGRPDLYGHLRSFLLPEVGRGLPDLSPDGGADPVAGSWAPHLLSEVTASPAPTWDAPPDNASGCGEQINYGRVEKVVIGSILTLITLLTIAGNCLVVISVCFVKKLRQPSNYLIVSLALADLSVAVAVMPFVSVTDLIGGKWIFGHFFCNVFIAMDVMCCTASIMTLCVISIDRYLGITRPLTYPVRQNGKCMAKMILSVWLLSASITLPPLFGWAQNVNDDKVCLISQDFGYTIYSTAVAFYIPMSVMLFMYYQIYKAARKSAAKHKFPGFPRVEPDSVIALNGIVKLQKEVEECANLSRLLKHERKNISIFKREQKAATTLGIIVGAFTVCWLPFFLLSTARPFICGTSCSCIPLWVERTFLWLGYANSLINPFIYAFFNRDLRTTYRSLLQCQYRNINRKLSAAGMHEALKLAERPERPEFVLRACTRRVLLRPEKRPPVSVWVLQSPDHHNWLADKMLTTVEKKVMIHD

D(1A) dopamine receptor (Homo sapiens), sequence (P21728 whole entry): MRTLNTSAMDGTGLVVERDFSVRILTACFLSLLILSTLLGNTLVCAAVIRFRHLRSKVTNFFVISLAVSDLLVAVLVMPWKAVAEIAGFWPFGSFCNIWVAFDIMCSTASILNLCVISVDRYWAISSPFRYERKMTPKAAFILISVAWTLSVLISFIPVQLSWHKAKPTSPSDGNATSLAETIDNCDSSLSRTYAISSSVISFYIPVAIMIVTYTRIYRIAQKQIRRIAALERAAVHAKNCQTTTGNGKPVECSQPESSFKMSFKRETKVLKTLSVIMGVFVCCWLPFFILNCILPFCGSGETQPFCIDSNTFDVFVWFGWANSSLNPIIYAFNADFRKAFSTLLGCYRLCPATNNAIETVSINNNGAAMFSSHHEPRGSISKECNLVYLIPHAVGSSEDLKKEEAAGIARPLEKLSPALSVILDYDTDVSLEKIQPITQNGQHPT
D(2) dopamine receptor (Homo sapiens), sequence (P14416 whole entry): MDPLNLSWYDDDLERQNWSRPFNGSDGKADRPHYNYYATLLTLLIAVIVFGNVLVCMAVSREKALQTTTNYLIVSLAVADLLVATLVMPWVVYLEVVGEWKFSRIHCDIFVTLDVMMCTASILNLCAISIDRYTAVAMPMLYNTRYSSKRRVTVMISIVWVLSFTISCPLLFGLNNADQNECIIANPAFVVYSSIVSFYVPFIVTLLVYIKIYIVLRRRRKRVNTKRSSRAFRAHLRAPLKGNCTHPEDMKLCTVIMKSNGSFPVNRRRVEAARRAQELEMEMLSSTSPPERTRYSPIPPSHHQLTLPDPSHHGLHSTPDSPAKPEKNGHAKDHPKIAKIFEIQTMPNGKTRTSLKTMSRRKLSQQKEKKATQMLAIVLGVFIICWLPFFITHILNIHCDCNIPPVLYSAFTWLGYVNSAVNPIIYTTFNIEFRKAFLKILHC
Nociceptin receptor (Homo sapiens), sequence (P41146 whole entry): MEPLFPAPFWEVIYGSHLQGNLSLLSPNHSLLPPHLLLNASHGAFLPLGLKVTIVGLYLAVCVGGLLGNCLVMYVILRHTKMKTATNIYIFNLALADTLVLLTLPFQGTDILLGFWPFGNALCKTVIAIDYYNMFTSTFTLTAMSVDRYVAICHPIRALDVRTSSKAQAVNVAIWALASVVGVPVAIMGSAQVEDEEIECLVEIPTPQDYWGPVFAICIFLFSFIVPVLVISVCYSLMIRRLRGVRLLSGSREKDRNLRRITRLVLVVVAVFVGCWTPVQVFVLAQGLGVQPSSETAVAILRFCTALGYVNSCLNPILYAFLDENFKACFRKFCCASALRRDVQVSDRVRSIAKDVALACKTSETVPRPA
5-hydroxytryptamine receptor 6 (Homo sapiens), sequence (P50406 whole entry): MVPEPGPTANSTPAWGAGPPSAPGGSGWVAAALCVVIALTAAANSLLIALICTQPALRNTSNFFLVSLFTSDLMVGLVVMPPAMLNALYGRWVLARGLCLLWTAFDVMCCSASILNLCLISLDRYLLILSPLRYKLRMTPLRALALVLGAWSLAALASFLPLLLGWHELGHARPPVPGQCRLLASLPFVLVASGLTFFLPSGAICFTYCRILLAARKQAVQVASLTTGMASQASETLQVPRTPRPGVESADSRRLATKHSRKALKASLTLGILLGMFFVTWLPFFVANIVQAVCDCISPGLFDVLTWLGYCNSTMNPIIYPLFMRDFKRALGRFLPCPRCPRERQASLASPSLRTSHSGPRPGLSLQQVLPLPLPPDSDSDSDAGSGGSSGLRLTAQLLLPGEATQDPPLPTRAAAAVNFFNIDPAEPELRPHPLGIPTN
Beta-2 adrenergic receptor (Homo sapiens), sequence (P07550 whole entry, looked up): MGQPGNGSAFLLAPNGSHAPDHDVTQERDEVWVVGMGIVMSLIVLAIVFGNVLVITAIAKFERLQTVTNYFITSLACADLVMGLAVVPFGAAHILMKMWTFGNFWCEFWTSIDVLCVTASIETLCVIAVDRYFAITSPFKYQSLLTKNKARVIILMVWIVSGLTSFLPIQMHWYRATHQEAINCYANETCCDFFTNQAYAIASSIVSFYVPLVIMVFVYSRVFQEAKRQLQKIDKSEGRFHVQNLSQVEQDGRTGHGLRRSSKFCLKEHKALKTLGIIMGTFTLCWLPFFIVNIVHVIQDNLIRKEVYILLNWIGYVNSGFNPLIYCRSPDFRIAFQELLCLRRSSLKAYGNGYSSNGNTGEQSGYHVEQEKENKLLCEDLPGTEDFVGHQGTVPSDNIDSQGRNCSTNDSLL
Melanocortin receptor 4 (Homo sapiens), sequence (P32245 whole entry): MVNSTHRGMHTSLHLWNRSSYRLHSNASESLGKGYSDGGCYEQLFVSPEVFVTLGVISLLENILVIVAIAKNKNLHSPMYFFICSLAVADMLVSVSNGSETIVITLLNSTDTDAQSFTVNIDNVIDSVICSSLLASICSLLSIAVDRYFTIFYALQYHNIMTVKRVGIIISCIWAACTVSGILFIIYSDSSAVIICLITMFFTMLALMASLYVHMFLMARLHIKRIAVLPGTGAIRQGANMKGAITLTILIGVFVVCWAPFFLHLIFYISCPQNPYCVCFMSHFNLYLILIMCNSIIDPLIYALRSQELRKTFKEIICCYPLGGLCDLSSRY

Compound | inhibition [1] [%] | Activity [2] | Time [3] [h] | ED50 [4] [mg/kg] | selectivity ratio [5] | TD50 [6] [mg/kg] | inhibition [7] [%] | inhibition [8] [%] | inhibition [9] [%] | inhibition [10] [%] | inhibition [11] [%] | inhibition [12] [%] | inhibition [13] [%] | inhibition [14] [%] | inhibition [15] [%] | inhibition [16] [%] | inhibition [17] [%]
Cc1ccccc1/C=C/C(=O)N[C@@H](C)CO | 1.3 | Non-Toxic | 0.25 | 42.6 | 2.57 | > 500 | 11.5 | 10.8 | -8 | 7.2 | 5 | 7.9 | 1.2 | -0.4 | 2.2 | 7 | 26.6
CCC(CO)NC(=O)/C=C/c1ccc(Cl)cc1 (stereo unspecified) | -0.4 | Non-Toxic | 0.25 | 53.8 | 2.18 | 277 | 9.9 | 34.8 | 2.1 | 18.5 | 1.8 | -3.1 | 48.3 | 5.8 | -4.4 | 3.7 | 16.2
CC(O)CNC(=O)/C=C/c1ccc(Cl)cc1 (stereo unspecified) | 10 | Non-Toxic | 0.5 | 55.6 | 1.76 | > 500 | 17.3 | 25.1 | -9 | 14.9 | 8.7 | 0.9 | 19.5 | 5.2 | 1.7 | 4.6 | 43.5
